# According to patent US7820623B2 (priority 2006, dated 2010):
# Bridge positions count the residues as written; N and C are the ends. Square brackets hold non-standard residues; d marks the D form. Peptide text beside a SMILES is read from it. 1Nal = N[C@@H](Cc1cccc2ccccc12)C(=O)O
# How the values were obtained:
# [1] = system: thapsigargin-induced IFN-g production in human whole blood; type: cell-based; conditions: read-out: Analogue Activity (IC50) WB/IFNg
# [2] = system: thapsigargin-induced IL-2 production in human whole blood; conditions: read-out: Analogue Activity (IC50) WB/IL-2
Compound,IC50 [1] [nM],IC50 [2] [nM]
"CC[C@H](C)[C@@H]1NC(=O)[C@H](CCCCN)NC(=O)[C@@H](NC(=O)[C@H](CCCCN)NC(=O)[C@@H](NC(=O)[C@H](CC(N)=O)NC(=O)[C@@H](NC(=O)[C@@H](NC(=O)[C@@H](NC(=O)CN)C(C)C)[C@@H](C)CC)[C@@H](C)CC)C(C)C)CSSC[C@@H]2NC(=O)[C@H](CCCCN)NC(=O)CNC(=O)[C@H](Cc3ccccc3)NC(=O)[C@H](CCCNC(=N)N)NC(=O)[C@H](CCSC)NC(=O)CNC(=O)[C@H](C)NC(=O)[C@H](CCCCN)NC(=O)[C@H](CCCCN)NC(=O)[C@@H]3CSSC[C@@H](C(=O)N[C@H](C(=O)N4CCC[C@H]4C(=O)N[C@@H](CCCCN)C(=O)O)[C@@H](C)O)NC(=O)[C@H](Cc4c[nH]cn4)NC(=O)[C@H](CSSC[C@H](NC(=O)[C@H](CCC(N)=O)NC(=O)[C@H](CCCNC(=N)N)NC(=O)[C@H](CO)NC1=O)C(=O)N[C@@H](CCCNC(=N)N)C(=O)N[C@@H](CCC(=O)O)C(=O)N1CCC[C@H]1C(=O)N3)NC(=O)[C@H](CCCCN)NC(=O)CNC(=O)[C@H](CC(N)=O)NC(=O)[C@H](CCSC)NC2=O [L15R] (H-GVIINVKCKISRQCREPCKKAGMRFGKCMNGKCHCTPK-OH; disulfide 8-28, 14-33, 18-35)",0.116,0.093
"CC[C@H](C)[C@@H]1NC(=O)[C@H](CCCCN)NC(=O)[C@@H](NC(=O)[C@H](CCCCN)NC(=O)[C@@H](NC(=O)[C@H](CC(N)=O)NC(=O)[C@@H](NC(=O)[C@@H](NC(=O)[C@@H](NC(=O)CN)C(C)C)[C@@H](C)CC)[C@@H](C)CC)C(C)C)CSSC[C@@H]2NC(=O)[C@H](CCCCN)NC(=O)CNC(=O)[C@H](Cc3ccccc3)NC(=O)[C@H](CCCNC(=N)N)NC(=O)[C@H](C)NC(=O)CNC(=O)[C@H](C)NC(=O)[C@H](CCCCN)NC(=O)[C@H](CCCCN)NC(=O)[C@@H]3CSSC[C@@H](C(=O)N[C@H](C(=O)N4CCC[C@H]4C(=O)N[C@@H](CCCCN)C(=O)O)[C@@H](C)O)NC(=O)[C@H](Cc4c[nH]cn4)NC(=O)[C@H](CSSC[C@H](NC(=O)[C@H](CCC(N)=O)NC(=O)[C@H](CCCNC(=N)N)NC(=O)[C@H](CO)NC1=O)C(=O)N[C@@H](CC(C)C)C(=O)N[C@@H](CCC(=O)O)C(=O)N1CCC[C@H]1C(=O)N3)NC(=O)[C@H](CCCCN)NC(=O)CNC(=O)[C@H](CC(N)=O)NC(=O)[C@H](CCSC)NC2=O [M23A] (H-GVIINVKCKISRQCLEPCKKAGARFGKCMNGKCHCTPK-OH; disulfide 8-28, 14-33, 18-35)",0.275,0.275
"CC[C@H](C)[C@@H]1NC(=O)[C@H](CCCCN)NC(=O)[C@@H](NC(=O)[C@H](CCCCN)NC(=O)[C@@H](NC(=O)[C@H](CC(N)=O)NC(=O)[C@@H](NC(=O)[C@@H](NC(=O)[C@@H](NC(=O)CN)C(C)C)[C@@H](C)CC)[C@@H](C)CC)C(C)C)CSSC[C@@H]2NC(=O)[C@H](CCCCN)NC(=O)CNC(=O)[C@H](Cc3ccccc3)NC(=O)[C@H](CCCNC(=N)N)NC(=O)[C@H](CCC(=O)O)NC(=O)CNC(=O)[C@H](C)NC(=O)[C@H](CCCCN)NC(=O)[C@H](CCCCN)NC(=O)[C@@H]3CSSC[C@@H](C(=O)N[C@H](C(=O)N4CCC[C@H]4C(=O)N[C@@H](CCCCN)C(=O)O)[C@@H](C)O)NC(=O)[C@H](Cc4c[nH]cn4)NC(=O)[C@H](CSSC[C@H](NC(=O)[C@H](CCC(N)=O)NC(=O)[C@H](CCCNC(=N)N)NC(=O)[C@H](CO)NC1=O)C(=O)N[C@@H](CC(C)C)C(=O)N[C@@H](CCC(=O)O)C(=O)N1CCC[C@H]1C(=O)N3)NC(=O)[C@H](CCCCN)NC(=O)CNC(=O)[C@H](CC(N)=O)NC(=O)[C@H](CCSC)NC2=O [M23E] (H-GVIINVKCKISRQCLEPCKKAGERFGKCMNGKCHCTPK-OH; disulfide 8-28, 14-33, 18-35)",0.666,0.606
"CC[C@H](C)[C@@H]1NC(=O)[C@H](CCCCN)NC(=O)[C@@H](NC(=O)[C@H](CCCCN)NC(=O)[C@@H](NC(=O)[C@H](CC(N)=O)NC(=O)[C@@H](NC(=O)[C@@H](NC(=O)[C@@H](NC(=O)CN)C(C)C)[C@@H](C)CC)[C@@H](C)CC)C(C)C)CSSC[C@@H]2NC(=O)[C@H](CCCCN)NC(=O)CNC(=O)[C@H](Cc3ccccc3)NC(=O)[C@H](CCCNC(=N)N)NC(=O)[C@H](Cc3cccc4ccccc34)NC(=O)CNC(=O)[C@H](C)NC(=O)[C@H](CCCCN)NC(=O)[C@H](CCCCN)NC(=O)[C@@H]3CSSC[C@@H](C(=O)N[C@H](C(=O)N4CCC[C@H]4C(=O)N[C@@H](CCCCN)C(=O)O)[C@@H](C)O)NC(=O)[C@H](Cc4c[nH]cn4)NC(=O)[C@H](CSSC[C@H](NC(=O)[C@H](CCC(N)=O)NC(=O)[C@H](CCCNC(=N)N)NC(=O)[C@H](CO)NC1=O)C(=O)N[C@@H](CC(C)C)C(=O)N[C@@H](CCC(=O)O)C(=O)N1CCC[C@H]1C(=O)N3)NC(=O)[C@H](CCCCN)NC(=O)CNC(=O)[C@H](CC(N)=O)NC(=O)[C@H](CCSC)NC2=O [M23Nal] (H-GVIINVKCKISRQCLEPCKKAG[1Nal]RFGKCMNGKCHCTPK-OH; disulfide 8-28, 14-33, 18-35)",1.11,0.581
"CC[C@H](C)[C@@H]1NC(=O)[C@H](CCCCN)NC(=O)[C@@H](NC(=O)[C@H](CCCCN)NC(=O)[C@@H](NC(=O)[C@H](CC(N)=O)NC(=O)[C@@H](NC(=O)[C@@H](NC(=O)[C@@H](NC(=O)CN)C(C)C)[C@@H](C)CC)[C@@H](C)CC)C(C)C)CSSC[C@@H]2NC(=O)[C@H](CCCCN)NC(=O)CNC(=O)[C@H](Cc3ccccc3)NC(=O)[C@H](CCCNC(=N)N)NC(=O)[C@H](CCCNC(=N)N)NC(=O)CNC(=O)[C@H](C)NC(=O)[C@H](CCCCN)NC(=O)[C@H](CCCCN)NC(=O)[C@@H]3CSSC[C@@H](C(=O)N[C@H](C(=O)N4CCC[C@H]4C(=O)N[C@@H](CCCCN)C(=O)O)[C@@H](C)O)NC(=O)[C@H](Cc4c[nH]cn4)NC(=O)[C@H](CSSC[C@H](NC(=O)[C@H](CCC(N)=O)NC(=O)[C@H](CCCNC(=N)N)NC(=O)[C@H](CO)NC1=O)C(=O)N[C@@H](CC(C)C)C(=O)N[C@@H](CCC(=O)O)C(=O)N1CCC[C@H]1C(=O)N3)NC(=O)[C@H](CCCCN)NC(=O)CNC(=O)[C@H](CC(N)=O)NC(=O)[C@H](CCSC)NC2=O [M23R] (H-GVIINVKCKISRQCLEPCKKAGRRFGKCMNGKCHCTPK-OH; disulfide 8-28, 14-33, 18-35)",0.148,0.182
"CC[C@H](C)[C@@H]1NC(=O)[C@H](CCCCN)NC(=O)[C@@H](NC(=O)[C@H](CCCCN)NC(=O)[C@@H](NC(=O)[C@H](C)NC(=O)[C@@H](NC(=O)[C@@H](NC(=O)[C@@H](NC(=O)CN)C(C)C)[C@@H](C)CC)[C@@H](C)CC)C(C)C)CSSC[C@@H]2NC(=O)[C@H](CCCCN)NC(=O)CNC(=O)[C@H](Cc3ccccc3)NC(=O)[C@H](CCCNC(=N)N)NC(=O)[C@H](CCSC)NC(=O)CNC(=O)[C@H](C)NC(=O)[C@H](CCCCN)NC(=O)[C@H](CCCCN)NC(=O)[C@@H]3CSSC[C@@H](C(=O)N[C@H](C(=O)N4CCC[C@H]4C(=O)N[C@@H](CCCCN)C(=O)O)[C@@H](C)O)NC(=O)[C@H](Cc4c[nH]cn4)NC(=O)[C@H](CSSC[C@H](NC(=O)[C@H](CCC(N)=O)NC(=O)[C@H](CCCNC(=N)N)NC(=O)[C@H](CO)NC1=O)C(=O)N[C@@H](CC(C)C)C(=O)N[C@@H](CCC(=O)O)C(=O)N1CCC[C@H]1C(=O)N3)NC(=O)[C@H](CCCCN)NC(=O)CNC(=O)[C@H](CC(N)=O)NC(=O)[C@H](CCSC)NC2=O [N5A] (H-GVIIAVKCKISRQCLEPCKKAGMRFGKCMNGKCHCTPK-OH; disulfide 8-28, 14-33, 18-35)",0.067,0.0679
"CC[C@H](C)[C@@H]1NC(=O)[C@H](CCCCN)NC(=O)[C@@H](NC(=O)[C@H](CCCCN)NC(=O)[C@@H](NC(=O)[C@H](CCC(=O)O)NC(=O)[C@@H](NC(=O)[C@@H](NC(=O)[C@@H](NC(=O)CN)C(C)C)[C@@H](C)CC)[C@@H](C)CC)C(C)C)CSSC[C@@H]2NC(=O)[C@H](CCCCN)NC(=O)CNC(=O)[C@H](Cc3ccccc3)NC(=O)[C@H](CCCNC(=N)N)NC(=O)[C@H](CCSC)NC(=O)CNC(=O)[C@H](C)NC(=O)[C@H](CCCCN)NC(=O)[C@H](CCCCN)NC(=O)[C@@H]3CSSC[C@@H](C(=O)N[C@H](C(=O)N4CCC[C@H]4C(=O)N[C@@H](CCCCN)C(=O)O)[C@@H](C)O)NC(=O)[C@H](Cc4c[nH]cn4)NC(=O)[C@H](CSSC[C@H](NC(=O)[C@H](CCC(N)=O)NC(=O)[C@H](CCCNC(=N)N)NC(=O)[C@H](CO)NC1=O)C(=O)N[C@@H](CC(C)C)C(=O)N[C@@H](CCC(=O)O)C(=O)N1CCC[C@H]1C(=O)N3)NC(=O)[C@H](CCCCN)NC(=O)CNC(=O)[C@H](CC(N)=O)NC(=O)[C@H](CCSC)NC2=O [N5E] (H-GVIIEVKCKISRQCLEPCKKAGMRFGKCMNGKCHCTPK-OH; disulfide 8-28, 14-33, 18-35)",0.065,0.1
"CC[C@H](C)[C@@H]1NC(=O)[C@H](CCCCN)NC(=O)[C@@H](NC(=O)[C@H](CCCCN)NC(=O)[C@@H](NC(=O)[C@H](Cc2cccc3ccccc23)NC(=O)[C@@H](NC(=O)[C@@H](NC(=O)[C@@H](NC(=O)CN)C(C)C)[C@@H](C)CC)[C@@H](C)CC)C(C)C)CSSC[C@@H]2NC(=O)[C@H](CCCCN)NC(=O)CNC(=O)[C@H](Cc3ccccc3)NC(=O)[C@H](CCCNC(=N)N)NC(=O)[C@H](CCSC)NC(=O)CNC(=O)[C@H](C)NC(=O)[C@H](CCCCN)NC(=O)[C@H](CCCCN)NC(=O)[C@@H]3CSSC[C@@H](C(=O)N[C@H](C(=O)N4CCC[C@H]4C(=O)N[C@@H](CCCCN)C(=O)O)[C@@H](C)O)NC(=O)[C@H](Cc4c[nH]cn4)NC(=O)[C@H](CSSC[C@H](NC(=O)[C@H](CCC(N)=O)NC(=O)[C@H](CCCNC(=N)N)NC(=O)[C@H](CO)NC1=O)C(=O)N[C@@H](CC(C)C)C(=O)N[C@@H](CCC(=O)O)C(=O)N1CCC[C@H]1C(=O)N3)NC(=O)[C@H](CCCCN)NC(=O)CNC(=O)[C@H](CC(N)=O)NC(=O)[C@H](CCSC)NC2=O [N5Nal] (H-GVII[1Nal]VKCKISRQCLEPCKKAGMRFGKCMNGKCHCTPK-OH; disulfide 8-28, 14-33, 18-35)",0.431,0.76
